Measurements published in US11135184B2, “Formulations for epidermal repair” (CLARIDEI LABORATORIES, INC., priority 2013, dated 2021).

Legend:
[1] = test system: cutaneous lupus erythematosus; experiment: prior treatment of a patient with cutaneous lupus erythematosus; format: in vivo, human; conditions: one patient
Source text: A patient presented with a three year history of cutaneous lupus erythematosus. They had been suffering from systemic lupus erythematosus for some time before the rash that is characteristic of cutaneous lupus erythematosus appeared on their chest, arms, neck and face.
Prior to treatment with a treatment regime utilizing the formulations of the present disclosure, this patient had been treated with several different treatment regimens representing the standard of care for cutaneous lupus erythematosus patients. […] All attempts to reduce the patient's suffering from cutaneous lupus erythematosus had brought little to no relief.

[2] = test system: lymphocytic transformation; conditions: cited from earlier work
[3] = test system: 3′-5′ cyclic AMP phosphodiesterase; conditions: cited from earlier work
[4] = test system: atopic dry skin; conditions: cited from earlier work
[5] = test system: serine palmitoyltransferase; conditions: cited from earlier work
[6] = test system: Mycobacterium smegmatis; conditions: in vitro; cited from earlier work
[7] = test system: Staphylococcus aureus; conditions: in vitro; cited from earlier work
[8] = test system: contact dermatitis; conditions: mice, cited from earlier work
[9] = test system: Candida albicans; conditions: in vitro; cited from earlier work
[10] = test system: 11β-hydroxysteroid dehydrogenase; conditions: cited from earlier work
[11] = test system: NF-kappaB; conditions: histamine-stimulated skin; cited from earlier work
[12] = test system: histamine-induced scratching behavior; conditions: applied to the skin of mice; cited from earlier work
[13] = test system: guinea pig ileum; conditions: cited from earlier work
[14] = test system: ultraviolet radiation damage; conditions: in vitro model of cutaneous photoaging; cited from earlier work
[15] = cited from earlier work
[16] = biological target: T1, Δ4β-reductase (Homo sapiens, UniProt P51857); conditions: in vitro; cited from earlier work
T1 sequence (P51857 1-326): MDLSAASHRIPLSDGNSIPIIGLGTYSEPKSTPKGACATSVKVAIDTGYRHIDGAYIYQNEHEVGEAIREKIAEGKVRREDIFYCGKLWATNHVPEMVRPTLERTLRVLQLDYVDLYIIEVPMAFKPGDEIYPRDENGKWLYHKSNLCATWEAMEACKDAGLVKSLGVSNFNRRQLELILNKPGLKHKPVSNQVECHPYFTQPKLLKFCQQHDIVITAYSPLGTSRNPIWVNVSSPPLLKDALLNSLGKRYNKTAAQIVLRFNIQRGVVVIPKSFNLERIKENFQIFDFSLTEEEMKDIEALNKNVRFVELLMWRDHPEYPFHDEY

SMILES: CCN(CC)CCCC(C)Nc1ccnc2cc(Cl)ccc12 (centres unmarked) [chloroquin]
- effect on cutaneous lupus erythematosus ([1]; orally administered): little or no effect

SMILES: NC(=O)c1cccnc1 [Niacinamide]
- antigen-induced lymphocytic transformation [2]: suppress
- inhibition of 3′-5′ cyclic AMP phosphodiesterase [3]: Inhibit
- transepidermal water loss ([4]; atopic dermatitis): decrease
- moisturizer effectiveness compared with white petrolatum ([4]; atopic dry skin): more effective moisturizer than white petrolatum
- de novo synthesis of ceramides (e.g., glucosylceramide and sphingomyelin) [5]: stimulating
- expression of serine palmitoyltransferase [5]: up-regulated

SMILES: C[C@]12C=CC(=O)C=C1CC[C@@H]1[C@@H]2C(=O)C[C@@]2(C)[C@H]1CC[C@]2(O)C(=O)CO [prednisone]
- effect on cutaneous lupus erythematosus ([1]; orally administered): little or no effect

SMILES: CC1(C)[C@@H](O[C@H]2O[C@H](C(=O)O)[C@@H](O)[C@H](O)[C@H]2O[C@@H]2O[C@H](C(=O)O)[C@@H](O)[C@H](O)[C@H]2O)CC[C@]2(C)[C@H]3C(=O)C=C4[C@@H]5C[C@@](C)(C(=O)O)CC[C@]5(C)CC[C@@]4(C)[C@]3(C)CC[C@@H]12 [glycyrrhizic acid, Glycyrrhizic acid]
- growth of Mycobacterium smegmatis [6]: inhibit the growth
- growth of Staphylococcus aureus [7]: inhibit the growth
- effect on contact dermatitis ([8]; administered orally): ineffective
- effectiveness against contact dermatitis compared with prednisolone ([8]; given intraperitoneally): more effective than prednisolone
- suppression of contact dermatitis ([8]; given intraperitoneally): suppress
- growth of Candida albicans [9]: inhibit the growth

SMILES: CC1(C)[C@@H](OC(=O)CCC(=O)O)CC[C@]2(C)[C@H]3C(=O)C=C4[C@@H]5C[C@@](C)(C(=O)O)CC[C@]5(C)CC[C@@]4(C)[C@]3(C)CC[C@@H]12 [Carbenoxolone]
- inhibition of 11β-hydroxysteroid dehydrogenase [10]: inhibits

SMILES: CCCCCCCCCCCCCC[C@@H](O)[C@@H](O)[C@@H](N)CO [phytosphingosine, Phytosphingosine]
- activation of the transcription factor NF-kappaB [11]: inhibited
- histamine-induced scratching behavior [12]: effectively inhibited
- anti-histamine effects in the Magnus test [13]: potent anti-histamine effects

SMILES: C[C@H](CCC(=O)O)[C@H]1CC[C@H]2[C@@H]3[C@H](O)C[C@@H]4C[C@H](O)CC[C@]4(C)[C@H]3CC[C@]12C [chenodeoxycholic acid]
- inhibition of 11β-hydroxysteroid dehydrogenase [10]: inhibits

SMILES: O=C1O[C@H](CO)[C@@H](O)[C@H](O)[C@H]1O [glucono delta-lactone, Glucono delta-lactone]
- protection against ultraviolet radiation [14]: photoprotective activity

SMILES: O=C(O)[C@H](O)[C@@H](O)[C@H](O[C@@H]1O[C@H](CO)[C@H](O)[C@H](O)[C@H]1O)[C@H](O)CO [Lactobionic acid, 4-O-β-galactopyranosyl-β-gluconic acid]
- pKa [15]: 3.8

SMILES: C[C@]12CCC(=O)C=C1CC[C@@H]1[C@@H]2C(=O)C[C@@]2(C)[C@H]1CC[C@]2(O)C(=O)CO [cortisone]
- effect on cutaneous lupus erythematosus ([1]; shots): little or no effect

SMILES: CC(=O)Oc1ccccc1C(=O)O [aspirin]
- effect on cutaneous lupus erythematosus ([1]; orally administered): little or no effect

SMILES: CC1(C)[C@@H](O)CC[C@]2(C)[C@H]3C(=O)C=C4[C@@H]5C[C@@](C)(C(=O)O)CC[C@]5(C)CC[C@@]4(C)[C@]3(C)CC[C@@H]12 [glycyrrhetinic acid, 18β-glycyrrhetinic acid]
- inhibition of 11β-hydroxysteroid dehydrogenase [10]: inhibit
- inhibition of Δ4β-reductase [16]: inhibit

SMILES: CCCCCCCCCCCCCCCCCC(=O)N[C@@H](CO)[C@H](O)[C@H](O)CCCCCCCCCCCCCC [N-stearoyl-phytosphingosine, N-Stearoyl-phytosphingosine]
- activation of the transcription factor NF-kappaB [11]: inhibited
- histamine-induced scratching behavior [12]: effectively inhibited
- anti-histamine effects in the Magnus test [13]: potent anti-histamine effects

SMILES: CCN(CCO)CCCC(C)Nc1ccnc2cc(Cl)ccc12.O=S(=O)(O)O (centres unmarked) [plaquenyl]
- effect on cutaneous lupus erythematosus ([1]; orally administered): little or no effect
